Laboratory results taken from patent US11690922B2, “Lipid compound as well as lipid carrier, nucleic acid lipid nanoparticle composition and pharmaceutical preparation containing same” (Purecodon (Hong Kong) Biopharma Ltd., priority 2021, dated 2023).

How the values were obtained:
[1] = Particle size, PDI, Zeta and entrapment efficiency of each LNP@mRNA; type: physicochemical; settings: for Entrapment efficiency (%) / PDI / Particle size (nm) / Zeta (mV): luciferase mRNA; for particle size of the LNP@mRNA (in words): LNP@mRNA with cholesterol, DSPC, PEG-DMG (Example 25), compared among compounds 1-8
Description: Compounds 1-8 were respectively dissolved in ethanol together with cholesterol, DSPC, PEG-DMG at a molar ratio of 50:38.5:10:1.5, luciferase mRNA was dissolved in a 50 mM citric acid buffered saline solution with a pH of 4.0, a volume ratio of the two solutions was 1:3, two phases were rapidly mixed by using microfluidics and a buffer environment was replaced into PBS with a pH of 7.4 by using dialysis or a tangential flow, so as to remove ethanol, and eight LNP@mRNAs were respectively prepared.
Thus, it can be seen that the entrapment efficiency to the nucleic acid drug by the compound provided by the present invention is high, and, using this compound as a carrier can improve the in-vivo delivery efficiency of the nucleic acid drug.
Compounds 13, and 14 and cholesterol, DOPC, and PEG-DMG were dissolved in ethanol at a molar ratio of 50:38.5:10:1.5, luciferase mRNA was dissolved in a 50 mM citric acid buffered saline solution with a pH of 4.0, a volume ratio of the two solutions was 1:3, two phases were mixed rapidly by using microfluidics and a buffer environment was replaced into PBS with a pH of 7.4 by using dialysis or a tangential flow, so as to remove ethanol, and two LNP@mRNAs were respectively prepared.

[2] = tested on: mice; assay: Fluorescence intensity and organ distribution in mice 6 hours after injection of luciferase LNP@mRNA; type: in vivo; settings: mouse, after 6 hours; for organ distribution of mRNA expression: intramuscular injection
Description: LNP@mRNAs prepared were respectively injected into a mouse body via a caudal vein or muscle, and after 6 hours, the fluorescence intensity and organ distribution in mice were tested. […] Therefore, a lipid compound with a specific structure can be chosen as a lipid carrier based on an organ in which the nucleic acid drug needs to be enriched.
LNP@mRNAs prepared were respectively injected into a mouse body via a caudal vein or muscle, and after 6 hours, the fluorescence intensity and organ distribution in mice were tested.

[3] = Zeta electric potentials of LNP@mRNA under different pHs; type: physicochemical; settings: Example 26 LNP (cholesterol, DOPC, PEG-DMG), FIG. 7
[4] = LNP@mRNA of compound:cholesterol:DSPC:PEG-DMG 50:38.5:10:1.5 molar, PBS pH 7.4 (Example 25)
[5] = LNP@mRNA of compound:cholesterol:DOPC:PEG-DMG 50:38.5:10:1.5 molar, PBS pH 7.4 (Example 26)

SMILES	Entrapment efficiency (%) [1, 4] [%]	PDI [1, 4]	Particle size (nm) [1, 4] [nm]	Zeta (mV) [1, 4] [mV]	particle size of the LNP@mRNA (in words) [1]	other results
CCCCCCCCC(CCCCCC)C(=O)OCCCCOC(=O)CCN(CCO)CCC(=O)OCCCCOC(=O)C(CCCCCC)CCCCCCCC (stereo not drawn) [Compound 1]	87	0.06	95	−9	small	–
CCCCCCCCC(CCCCCC)C(=O)OCCCCOC(=O)CCN(CCCO)CCC(=O)OCCCCOC(=O)C(CCCCCC)CCCCCCCC (stereo not drawn) [Compound 2]	86	0.07	68	−14	small	–
CCCCCCCCC(CCCCCC)C(=O)OCCCCOC(=O)CCN(CCCCO)CCC(=O)OCCCCOC(=O)C(CCCCCC)CCCCCCCC (stereo not drawn) [Compound 3]	86	0.07	76	−15	small	–
CCCCCCCCC(CCCCCC)C(=O)OCCCCOC(=O)CCN(CCCCCO)CCC(=O)OCCCCOC(=O)C(CCCCCC)CCCCCCCC (stereo not drawn) [Compound 4]	82	0.09	77	−12	small	–
CCCCCCC(CCCC)C(=O)OCCCCOC(=O)CCN(CCCn1ccnc1)CCC(=O)OCCCCOC(=O)C(CCCC)CCCCCC (stereo not drawn) [Compound 13]	–	–	–	–	–	Entrapment efficiency (%) [1, 5]: 85%; PDI [1, 5]: 0.03; Particle size (nm) [1, 5]: 156 nm; Zeta (mV) [1, 5]: −19 mV; Zeta electric potential of the LNP@mRNA ([3]; pH about 2): strong positive electricity; Zeta electric potential of the LNP@mRNA ([3]; pH close to 5): electric neutrality; Zeta electric potential of the LNP@mRNA ([3]; pH greater than 8): strong electronegativity; maximum fluorescence of intramuscular injection of LNP@mRNA (effect) ([2]; Example 26 LNP (DOPC), comparison of compounds 13 and 14, FIG. 4): better
CCCCCCCCC(CCCCCC)C(=O)OCCCCOC(=O)CCN(CCCn1ccnc1)CCC(=O)OCCCCOC(=O)C(CCCCCC)CCCCCCCC (stereo not drawn) [Compound 14]	–	–	–	–	–	Entrapment efficiency (%) [1, 5]: 87%; PDI [1, 5]: 0.07; Particle size (nm) [1, 5]: 122 nm; Zeta (mV) [1, 5]: −11 mV; organ distribution of mRNA expression ([2]; Example 26 LNP (DOPC), FIG. 5 and 6): mainly expressed in spleen

The next lines start with results.

Entrapment efficiency (%) [1, 4] [%]	PDI [1, 4]	Particle size (nm) [1, 4] [nm]	Zeta (mV) [1, 4] [mV]	particle size of the LNP@mRNA (in words) [1]	SMILES	other results
80	0.10	114	−13	–	CCCCCCC(CCCC)C(=O)OCCCCOC(=O)CCN(CCO)CCC(=O)OCCCCOC(=O)C(CCCC)CCCCCC (stereo not drawn) [Compound 5]	–
72	0.06	125	−12	–	CCCCCCC(CCCC)C(=O)OCCCCOC(=O)CCN(CCCO)CCC(=O)OCCCCOC(=O)C(CCCC)CCCCCC (stereo not drawn) [Compound 6]	–
82	0.05	116	−18	–	CCCCCCC(CCCC)C(=O)OCCCCOC(=O)CCN(CCCCO)CCC(=O)OCCCCOC(=O)C(CCCC)CCCCCC (stereo not drawn) [Compound 7]	maximum fluorescence of intramuscular injection of LNP@mRNA (effect) ([2]; Example 25 LNP (DSPC), comparison among compounds 1-8, FIG. 1): better; organ distribution of mRNA expression ([2]; Example 25 LNP (DSPC), FIG. 2 and 3): manly expressed in spleen
82	0.07	124	−12	–	CCCCCCC(CCCC)C(=O)OCCCCOC(=O)CCN(CCCCCO)CCC(=O)OCCCCOC(=O)C(CCCC)CCCCCC (stereo not drawn) [Compound 8]	–
